Results: patent publication US10512264B2, “Herbicidal mixtures” (Syngenta Participations AG, priority 2015, dated 2019)
Several values for one entry are separate records, joined by “and”; a condition that tells them apart may be missing. Equal entries are not always repeated.

Tests used:
Assay type in all cases: in vivo
Details in all cases: 21 days after application
[1] = tested on: Digitaria sanguinalis (DIGSA); test: Herbicidal action, pre-emergence glasshouse test, Digitaria sanguinalis
Description: (§1) Seeds of a variety of test species were sown in standard soil in pots. After cultivation for one day (pre-emergence) under controlled conditions in a glasshouse (at 24/18° C., at day/night; 16 hours light; 65% humidity), the plants were sprayed with an aqueous spray solution derived from the formulation of the technical active ingredient dissolved in acetone plus formulation A containing 10.56 wt % Emulsogen EL, 42.22 wt % N-MethylPyrrolidon, 2.22 wt % DPG-Monoethyl ether at a 1:20 ratio (technical active ingredient:formulation A). To achieve the mixture treatments, the appropriate concentration of the mixture partner (commercial formulation) was added to the solution in order to achieve the desired experimental compound:mixture partner ratio).
(§2) After application, the test plants were grown in a glasshouse under controlled conditions (at 24/18° C. day/night; 16 hours light; 65% humidity) and watered twice daily. Herbicidal activity was evaluated 21 days after application in a 100-0 scale (100=total damage to plant; 0=no damage to plant).

Setaria fabarii (SETFA) = test: Herbicidal action, pre-emergence glasshouse test, Setaria fabarii
Description: as §1, §2

[2] = tested on: Euphorbia heterophylla (EPHHL); test: Herbicidal action, pre-emergence glasshouse test, Euphorbia heterophylla
Description: as §1, §2

Ipomea purpurea (PHBPU) = test: Herbicidal action, pre-emergence glasshouse test, Ipomea purpurea
Description: as §1, §2

[3] = tested on: Ambrosia artimisifolia (AMBEL); test: Herbicidal action, pre-emergence glasshouse test, Ambrosia artimisifolia
Description: as §1, §2

Bidens pilosa (BIDPI) = test: Herbicidal action, pre-emergence glasshouse test, Bidens pilosa
Description: as §1, §2

Row | Compound | Activity (% of untreated) Observed ([2]; applied alone at 100 g/ha) | Activity (% of untreated) Observed ([2]; applied alone at 250 g/ha) | Activity (% of untreated) Observed (Ipomea purpurea (PHBPU); applied alone at 100 g/ha) | Activity (% of untreated) Observed (Ipomea purpurea (PHBPU); applied alone at 250 g/ha) | Activity (% of untreated) Observed ([3]; applied alone at 100 g/ha) | Activity (% of untreated) Observed ([3]; applied alone at 250 g/ha) | Activity (% of untreated) Observed ([1]; alone 100 g/ha) | Activity (% of untreated) Observed ([1]; alone 250 g/ha) | Activity (% of untreated) Observed (Setaria fabarii (SETFA); alone 100 g/ha) | Activity (% of untreated) Observed (Setaria fabarii (SETFA); alone 250 g/ha) | Activity (% of untreated) Observed (Ipomea purpurea (PHBPU); applied alone at 25 g/ha) | Activity (% of untreated) Observed (Ipomea purpurea (PHBPU); applied alone at 50 g/ha) | Activity (% of untreated) Observed ([3]; applied alone at 10 g/ha) | Activity (% of untreated) Observed ([3]; applied alone at 50 g/ha) | Activity (% of untreated) Observed ([1]; alone 10 g/ha) | Activity (% of untreated) Observed ([1]; alone 50 g/ha) | Activity (% of untreated) Observed (Setaria fabarii (SETFA); alone 10 g/ha) | Activity (% of untreated) Observed (Setaria fabarii (SETFA); alone 50 g/ha) | Activity (% of untreated) Observed (Bidens pilosa (BIDPI); applied alone at 10 g/ha) | Activity (% of untreated) Observed (Bidens pilosa (BIDPI); applied alone at 25 g/ha) | other results
1 | S-Metolachlor | – | – | – | – | – | – | – | – | – | – | – | – | – | – | – | – | – | – | – | – | Activity (% of untreated) Observed ([1]; alone 80 g/ha): 65 % of untreated; Activity (% of untreated) Observed ([1]; alone 200 g/ha): 100 % of untreated; Activity (% of untreated) Observed (Setaria fabarii (SETFA); alone 80 g/ha): 85 % of untreated; Activity (% of untreated) Observed (Setaria fabarii (SETFA); alone 200 g/ha): 98.5 % of untreated
2 | COC1=C(C)C(O)N(c2cc(C(C)(C)C)on2)C1=O (stereo not drawn) [Compound 1.2] | 10 % of untreated | 80 % of untreated | 2.5 % of untreated | 35 % of untreated | 42.5 % of untreated | 92.5 % of untreated | 0 % of untreated | 5 % of untreated | 0 % of untreated | 72.5 % of untreated | – | – | – | – | – | – | – | – | – | – | Activity (% of untreated) Observed (Bidens pilosa (BIDPI); applied alone at 100 g/ha): 65 % of untreated; Activity (% of untreated) Observed (Bidens pilosa (BIDPI); applied alone at 250 g/ha): 85 % of untreated
3 | CC1=C(Cl)C(=O)N(c2cc(C(C)(C)C)on2)C1O (stereo not drawn) [Compound 1.3] | – | 87.5 % of untreated | – | 85 % of untreated and 72.5 % of untreated | – | 86 % of untreated and 99 % of untreated | – | 100 % of untreated | – | – | – | – | – | – | – | – | – | – | – | – | Activity (% of untreated) Observed ([2]; applied alone at 31.25 g/ha): 5 % of untreated; Activity (% of untreated) Observed ([2]; applied alone at 62.5 g/ha): 15 % of untreated; Activity (% of untreated) Observed ([2]; applied alone at 125 g/ha): 35 % of untreated; Activity (% of untreated) Observed ([2]; applied alone at 500 g/ha): 100 % of untreated; Activity (% of untreated) Observed (Ipomea purpurea (PHBPU); applied alone at 31.25 g/ha): 67.5 % of untreated; Activity (% of untreated) Observed (Ipomea purpurea (PHBPU); applied alone at 62.5 g/ha): 97.5 % of untreated; Activity (% of untreated) Observed (Ipomea purpurea (PHBPU); applied alone at 125 g/ha): 40 % of untreated and 50 % of untreated; Activity (% of untreated) Observed (Ipomea purpurea (PHBPU); applied alone at 500 g/ha): 100 % of untreated and 90 % of untreated; Activity (% of untreated) Observed ([3]; applied alone at 31.25 g/ha): 85 % of untreated; Activity (% of untreated) Observed ([3]; applied alone at 62.5 g/ha): 97 % of untreated; Activity (% of untreated) Observed ([3]; applied alone at 125 g/ha): 85 % of untreated and 98.5 % of untreated; Activity (% of untreated) Observed ([3]; applied alone at 500 g/ha): 98.5 % of untreated and 99 % of untreated; Activity (% of untreated) Observed ([1]; alone 31.25 g/ha): 0 % of untreated; Activity (% of untreated) Observed ([1]; alone 62.5 g/ha): 65 % of untreated; Activity (% of untreated) Observed ([1]; alone 125 g/ha): 99 % of untreated; Activity (% of untreated) Observed ([1]; alone 500 g/ha): 99.5 % of untreated and 99 % of untreated; Activity (% of untreated) Observed (Setaria fabarii (SETFA); alone 31.25 g/ha): 90 % of untreated; Activity (% of untreated) Observed (Setaria fabarii (SETFA); alone 62.5 g/ha): 100 % of untreated
4 | Bicyclopyrone [reference compound] | 100 % of untreated | – | 50 % of untreated | – | 25 % of untreated | – | 0 % of untreated | – | 57.5 % of untreated | – | 0 % of untreated | 0 % of untreated | 70 % of untreated | 12.5 % of untreated | 87.5 % of untreated | 5 % of untreated | 17.5 % of untreated | 35 % of untreated | 0 % of untreated | 5 % of untreated | Activity (% of untreated) Observed ([2]; applied alone at 10 g/ha): 32.5 % of untreated; Activity (% of untreated) Observed ([2]; applied alone at 25 g/ha): 77.5 % of untreated and 95 % of untreated; Activity (% of untreated) Observed ([2]; applied alone at 50 g/ha): 98.5 % of untreated; Activity (% of untreated) Observed (Ipomea purpurea (PHBPU); applied alone at 10 g/ha): 0 % of untreated
5 | CS(=O)(=O)c1ccc(C(=O)C2C(=O)CCCC2=O)c([N+](=O)[O-])c1 [Mesotrione, reference compound] | – | – | 50 % of untreated | – | 25 % of untreated | – | 0 % of untreated | – | 57.5 % of untreated | – | 0 % of untreated | 0 % of untreated | 7.5 % of untreated | 12.5 % of untreated | 45 % of untreated | 5 % of untreated | 0 % of untreated | 35 % of untreated | 10 % of untreated | 30 % of untreated | –
6 | COC1=C(C)C(O)N(c2cc(C(C)(C)C)ncn2)C1=O (stereo not drawn) [Compound 1.1] | 12.5 % of untreated | 70 % of untreated | 0 % of untreated | 5 % of untreated | 37.5 % of untreated | 85 % of untreated | 0 % of untreated | 65 % of untreated | 0 % of untreated | 70 % of untreated | – | – | – | – | – | – | – | – | – | – | –
